Test results from the NIST ThermoML archive (doi:10.1016/j.jct.2012.12.001).
± gives the expanded uncertainty stated by the source.

Assay: heat capacity at constant pressure per volume; xn = mol fraction of the nth substance listed
Settings: 101 kPa, Liquid, DSC, x2 = 0.713

CCCCCCCCCCCCCCCCCC [octadecane] + N#Cc1ccccc1
Settings	heat capacity [J/K/m3]
303.58 K	1893500 ± 20000
303.61 K	1895600 ± 20000
303.64 K	1894200 ± 20000
303.66 K	1894100 ± 20000
303.69 K	1893500 ± 20000
303.72 K	1893700 ± 20000
303.75 K	1897900 ± 20000
303.78 K	1897000 ± 20000
303.8 K	1893000 ± 20000
303.83 K	1895200 ± 20000
303.86 K	1892600 ± 20000
303.89 K	1900300 ± 20000
303.92 K	1898300 ± 20000
303.94 K	1898400 ± 20000
303.97 K	1899900 ± 20000
304 K	1891800 ± 20000
304.03 K	1897900 ± 20000
304.06 K	1900800 ± 20000
304.09 K	1899300 ± 20000
304.11 K	1897800 ± 20000
304.14 K	1899100 ± 20000
304.17 K	1900600 ± 20000
304.2 K	1897100 ± 20000
304.23 K	1902700 ± 20000
304.25 K	1900600 ± 20000
304.28 K	1893900 ± 20000
304.31 K	1900100 ± 20000
304.34 K	1897300 ± 20000
304.37 K	1899500 ± 20000
304.39 K	1898900 ± 20000
304.42 K	1904200 ± 20000
304.45 K	1900400 ± 20000
304.48 K	1895000 ± 20000
304.51 K	1898500 ± 20000
304.54 K	1903400 ± 20000
304.56 K	1902200 ± 20000
304.59 K	1903900 ± 20000
304.62 K	1901200 ± 20000
304.65 K	1901800 ± 20000
304.68 K	1903500 ± 20000
304.7 K	1904200 ± 20000
304.73 K	1899600 ± 20000
304.76 K	1899700 ± 20000
304.79 K	1900400 ± 20000
304.82 K	1904800 ± 20000
304.84 K	1903700 ± 20000
304.87 K	1904600 ± 20000
304.9 K	1904600 ± 20000
304.93 K	1903200 ± 20000
304.96 K	1902600 ± 20000
304.98 K	1900600 ± 20000
305.01 K	1902200 ± 20000
305.04 K	1902200 ± 20000
305.07 K	1903000 ± 20000
305.1 K	1907100 ± 20000
305.12 K	1903100 ± 20000
305.15 K	1908100 ± 20000
305.18 K	1904700 ± 20000
305.21 K	1904200 ± 20000
305.24 K	1905700 ± 20000
305.27 K	1907500 ± 20000
305.29 K	1908300 ± 20000
305.32 K	1908600 ± 20000
305.35 K	1908400 ± 20000
305.38 K	1906900 ± 20000
305.41 K	1907700 ± 20000
305.44 K	1908100 ± 20000
305.46 K	1909400 ± 20000
305.49 K	1908500 ± 20000
305.52 K	1909000 ± 20000
305.55 K	1908400 ± 20000
305.57 K	1909200 ± 20000
305.6 K	1906500 ± 20000
305.63 K	1908200 ± 20000
305.66 K	1908500 ± 20000
305.69 K	1909100 ± 20000
305.72 K	1909500 ± 20000
305.74 K	1911100 ± 20000
305.77 K	1910000 ± 20000
305.8 K	1907500 ± 20000
305.83 K	1908700 ± 20000
305.86 K	1914100 ± 20000
305.88 K	1911500 ± 20000
305.91 K	1910100 ± 20000
305.94 K	1909200 ± 20000
305.97 K	1909700 ± 20000
306 K	1906900 ± 20000
306.02 K	1909600 ± 20000
306.05 K	1913100 ± 20000
306.08 K	1913500 ± 20000
306.11 K	1917400 ± 20000
306.14 K	1917300 ± 20000
306.17 K	1913000 ± 20000
306.19 K	1914700 ± 20000
306.22 K	1914300 ± 20000
306.25 K	1915600 ± 20000
306.28 K	1918100 ± 20000
306.31 K	1915700 ± 20000
306.33 K	1916100 ± 20000
306.36 K	1913300 ± 20000
306.39 K	1910700 ± 20000
306.42 K	1914500 ± 20000
306.45 K	1911200 ± 20000
306.48 K	1914800 ± 20000
306.5 K	1918100 ± 20000
306.53 K	1921200 ± 20000
306.56 K	1920200 ± 20000
306.59 K	1916400 ± 20000
306.62 K	1922000 ± 20000
306.64 K	1923600 ± 20000
306.67 K	1922600 ± 20000
306.7 K	1921800 ± 20000
306.73 K	1922000 ± 20000
306.76 K	1921100 ± 20000
306.78 K	1915500 ± 20000
306.81 K	1915900 ± 20000
306.84 K	1920400 ± 20000
306.87 K	1916900 ± 20000
306.9 K	1923600 ± 20000
306.93 K	1927300 ± 20000
306.95 K	1929700 ± 20000
306.98 K	1927500 ± 20000
307.01 K	1924100 ± 20000
307.04 K	1928000 ± 20000
307.06 K	1932100 ± 20000
307.09 K	1924600 ± 20000
307.12 K	1927400 ± 20000
307.15 K	1929100 ± 20000
307.18 K	1928200 ± 20000
307.21 K	1926400 ± 20000
307.23 K	1925500 ± 20000
307.26 K	1931000 ± 20000
307.29 K	1928800 ± 20000
307.32 K	1935200 ± 20000
307.35 K	1931700 ± 20000
307.37 K	1930400 ± 20000
307.4 K	1932600 ± 20000
307.43 K	1934400 ± 20000
307.46 K	1934700 ± 20000
307.49 K	1935300 ± 20000
307.51 K	1940700 ± 20000
307.54 K	1937500 ± 20000
307.57 K	1936300 ± 20000
307.6 K	1936200 ± 20000
307.63 K	1932400 ± 20000
307.66 K	1937300 ± 20000
307.68 K	1942100 ± 20000
307.71 K	1944000 ± 20000
307.74 K	1939900 ± 20000
307.77 K	1932400 ± 20000
307.8 K	1938300 ± 20000
307.82 K	1947000 ± 20000
307.85 K	1949300 ± 20000
307.88 K	1946700 ± 20000
307.91 K	1938400 ± 20000
307.94 K	1933900 ± 20000
307.96 K	1951300 ± 20000
307.99 K	1961700 ± 20000
308.02 K	1944900 ± 20000
308.05 K	1926900 ± 20000
308.08 K	1941200 ± 20000
308.11 K	1958000 ± 20000
308.13 K	1970100 ± 20000
308.16 K	1961600 ± 20000
308.19 K	1937100 ± 20000
308.22 K	1930400 ± 20000
308.25 K	1946700 ± 20000
308.27 K	1964400 ± 20000
308.3 K	1971900 ± 20000
308.33 K	1970700 ± 20000
308.36 K	1959500 ± 20000
308.39 K	1936500 ± 20000
308.42 K	1912300 ± 21000
308.44 K	1924300 ± 20000
308.47 K	1951900 ± 20000
308.5 K	2008600 ± 20000
308.53 K	2043600 ± 20000
308.56 K	2018100 ± 20000
308.58 K	1941300 ± 20000
308.61 K	1912700 ± 20000
308.64 K	1927600 ± 20000
308.67 K	1961900 ± 20000
308.7 K	1999600 ± 20000
308.72 K	2029400 ± 20000
308.75 K	2032700 ± 20000
308.78 K	1994600 ± 20000
308.81 K	1952000 ± 20000
308.84 K	1951000 ± 20000
308.87 K	1967200 ± 20000
308.89 K	1986400 ± 20000
308.92 K	2016500 ± 20000
308.95 K	2025600 ± 20000
308.98 K	1992600 ± 20000
309 K	1977300 ± 20000
309.03 K	1975500 ± 20000
309.06 K	1984100 ± 20000
309.09 K	2003300 ± 20000
309.12 K	2020100 ± 20000
309.15 K	2018700 ± 20000
309.17 K	2001300 ± 21000
309.2 K	1997100 ± 21000
309.23 K	1999200 ± 20000
309.26 K	2022000 ± 20000
309.29 K	2056100 ± 20000
309.31 K	2064600 ± 21000
309.34 K	2035200 ± 22000
309.37 K	2025000 ± 21000
309.4 K	2039600 ± 22000
309.43 K	2070400 ± 23000
309.45 K	2095200 ± 22000
309.48 K	2108700 ± 24000
309.51 K	2150900 ± 26000
309.54 K	2201100 ± 29000
309.57 K	1939300 ± 31000
309.6 K	1869500 ± 33000
309.62 K	1848200 ± 36000
309.65 K	1833800 ± 40000
309.68 K	1826700 ± 23000
309.71 K	1819300 ± 21000
309.74 K	1817500 ± 20000
309.76 K	1810200 ± 20000
309.79 K	1806800 ± 20000
309.82 K	1803600 ± 20000
309.85 K	1800700 ± 20000
309.88 K	1798700 ± 20000
309.9 K	1794300 ± 20000
309.93 K	1792100 ± 20000
309.96 K	1792800 ± 20000
309.99 K	1790300 ± 20000
310.02 K	1787500 ± 20000
310.05 K	1785800 ± 20000
310.07 K	1787100 ± 20000
310.1 K	1782100 ± 20000
310.13 K	1784300 ± 20000
310.16 K	1779800 ± 20000
310.19 K	1779800 ± 20000
310.21 K	1778600 ± 20000
310.24 K	1778600 ± 20000
310.27 K	1775500 ± 20000
310.3 K	1773400 ± 20000
310.33 K	1772700 ± 20000
310.35 K	1774100 ± 20000
310.38 K	1771100 ± 20000
310.41 K	1773500 ± 20000
310.44 K	1771400 ± 20000
310.47 K	1770500 ± 20000
310.5 K	1768500 ± 20000
310.52 K	1769800 ± 20000
310.55 K	1768900 ± 20000
310.58 K	1766300 ± 20000
310.61 K	1764600 ± 20000
310.64 K	1764400 ± 20000
310.66 K	1764600 ± 20000
310.69 K	1763300 ± 20000
310.72 K	1763400 ± 20000
310.75 K	1765000 ± 20000
310.78 K	1762800 ± 20000
310.8 K	1762200 ± 20000
310.83 K	1757300 ± 20000
310.86 K	1761100 ± 20000
310.89 K	1760100 ± 20000
310.92 K	1760700 ± 20000
310.94 K	1761100 ± 20000
310.97 K	1760600 ± 20000
311 K	1759800 ± 20000
311.03 K	1759800 ± 20000
311.06 K	1758100 ± 20000
311.09 K	1757600 ± 20000
311.11 K	1758300 ± 20000
311.14 K	1758800 ± 20000
311.17 K	1757800 ± 20000
311.2 K	1757900 ± 20000
311.23 K	1756900 ± 20000
311.25 K	1754900 ± 20000
311.28 K	1754400 ± 20000
